Experimental data reported in patent publication US8133847B2, “Pyrido[2,3-B]pyrazine derivatives useful as herbicidal compounds” (Syngenta Limited, priority 2006, dated 2012).

Key:
Test in all cases: Example B1 herbicidal action, post-emergence, 96-cell seed trays, climatic chamber
Format in all cases: in vivo
[1] = tested on: Nasturtium officinale (NAAOF); set-up: scale not given here; conditions: Application post-emergence, 1000 mg/l spray equivalent to 1000 g/ha, evaluated after 9 days (100=total damage to plant, 0=no damage to plant)
Summary of the method: (§1)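 Plants at 8–9 days post-sowing (23/17 °C, 13 h light, 50–60% humidity) sprayed post-emergence with 1000 mg/l active ingredient in 10% DMSO, equivalent to 1000 g/ha. Grown on at 24/19 °C, watered twice daily; damage scored after 9 days (0 = none, 100 = total).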

Stellaria media (STEME) = conditions: Application post-emergence, 1000 mg/l spray equivalent to 1000 g/ha, evaluated after 9 days (100=total damage to plant, 0=no damage to plant)
Summary of the method: as §1

Solanum nigrum (SOLNI) = conditions: Application post-emergence, 1000 mg/l spray equivalent to 1000 g/ha, evaluated after 9 days (100=total damage to plant, 0=no damage to plant)
Summary of the method: as §1

[2] = tested on: Amaranthus retroflexus (AMARE); conditions: Application post-emergence, 1000 mg/l spray equivalent to 1000 g/ha, evaluated after 9 days
Summary of the method: as §1

| SMILES | damage to plant, Nasturtium officinale (NAAOF) [1] | damage to plant, Stellaria media (STEME) (Stellaria media (STEME)) | damage to plant, Solanum nigrum (SOLNI) (Solanum nigrum (SOLNI)) | damage to plant, Amaranthus retroflexus (AMARE) [2] |
| --- | --- | --- | --- | --- |
| CCCC(C)C(=O)Oc1c(-c2c(F)ccc(F)c2Cl)c(=O)n(C)c2nccnc12 (centres unmarked) [Compound C95] | 7 | 7 | 5 | 6 |
| CCCC(CCC)C(=O)Oc1c(-c2c(F)ccc(F)c2Cl)c(=O)n(C)c2nccnc12 [Compound C96] | 3 | 6 | 3 | 5 |
| CC(CC(=O)Oc1c(-c2c(F)ccc(F)c2Cl)c(=O)n(C)c2nccnc12)CC(C)(C)C (centres unmarked) [Compound C98] | 2 | 1 | 2 | 5 |
| Cc1noc(C)c1C(=O)Oc1c(-c2c(F)ccc(F)c2Cl)c(=O)n(C)c2nccnc12 [Compound C100] | 6 | 3 | 5 | 6 |
| C=CCCCCCCCCC(=O)Oc1c(-c2c(F)ccc(F)c2Cl)c(=O)n(C)c2nccnc12 [Compound C101] | 3 | 2 | 4 | 7 |
| Cc1cc(C(=O)Oc2c(-c3c(F)ccc(F)c3Cl)c(=O)n(C)c3nccnc23)c(C)o1 [Compound C102] | 7 | 7 | 7 | 4 |
| CCn1c(=O)c(-c2c(C)cc(C)cc2C)c(OC(=O)C(C)C)c2nccnc21 [Compound C103] | 6 | 7 | 7 | 4 |
| CCn1c(=O)c(-c2cc(C(F)(F)F)cc(C(F)(F)F)c2)c(OC(C)=O)c2nccnc21 [Compound C104] | 4 | 0 | 0 | 2 |
| Cn1c(=O)c(-c2c(F)ccc(F)c2Cl)c(OC(=O)C(C)(C)C)c2nccnc21 [Compound C105] | 6 | 8 | 5 | 5 |
| Cn1c(=O)c(-c2c(Cl)ccc(Cl)c2Cl)c(OC(=O)C(C)(C)C)c2nccnc21 [Compound C108] | 5 | 5 | 3 | 6 |
| Cn1c(=O)c(-c2ccccc2C(F)(F)F)c(OC(=O)C(C)(C)C)c2nccnc21 [Compound C109] | 4 | 0 | 6 | 3 |
| CC(C)C(=O)Oc1c(-c2ccccc2C(F)(F)F)c(=O)n(C)c2nccnc12 [Compound C110] | 6 | 7 | 6 | 7 |
| CCn1c(=O)c(-c2c(F)ccc(F)c2Cl)c(OC(=O)CC(C)(C)C)c2nccnc21 [Compound C112] | 5 | 7 | 7 | 6 |
| C=CCC(=O)Oc1c(-c2c(F)ccc(F)c2Cl)c(=O)n(CC=C)c2nccnc12 [Compound C113] | 6 | 8 | 6 | 7 |
| Cc1ccc(Cl)c(-c2c(OC(=O)C(C)C)c3nccnc3n(C)c2=O)c1F [Compound C114] | 5 | 6 | 2 | 2 |
| CCn1c(=O)c(-c2c(Cl)ccc(C)c2F)c(OC(=O)C(C)C)c2nccnc21 [Compound C115] | 7 | 8 | 4 | 4 |
| Cc1ccc(Cl)c(-c2c(OC(=O)C(C)(C)C)c3nccnc3n(C)c2=O)c1F [Compound C116] | 2 | 4 | 4 | 0 |
| CCn1c(=O)c(-c2c(Cl)ccc(C)c2F)c(OC(=O)C(C)(C)C)c2nccnc21 [Compound C117] | 0 | 1 | 5 | 0 |
| CC(C)C(=O)Oc1c(-c2cc(C(F)(F)F)ccc2Cl)c(=O)n(C)c2nccnc12 [Compound C118] | 7 | 8 | 6 | 6 |
| CCn1c(=O)c(-c2cc(C(F)(F)F)ccc2Cl)c(OC(=O)C(C)C)c2nccnc21 [Compound C119] | 7 | 8 | 6 | 7 |
| Cn1c(=O)c(-c2c(Cl)cc(C(F)(F)F)cc2Cl)c(OC(=O)C(C)(C)C)c2nccnc21 [Compound C120] | 6 | 7 | 7 | 5 |
| Cn1c(=O)c(-c2cc(C(F)(F)F)ccc2Cl)c(OC(=O)C(C)(C)C)c2nccnc21 [Compound C121] | 6 | 7 | 7 | 5 |
| CCn1c(=O)c(-c2cc(C(F)(F)F)ccc2Cl)c(OC(=O)C(C)(C)C)c2nccnc21 [Compound C122] | 4 | 7 | 6 | 6 |
| Cn1c(=O)c(-c2cccc(C(F)(F)F)c2Cl)c(OC(=O)C(C)(C)C)c2nccnc21 [Compound C123] | 4 | 6 | 6 | 4 |
| CC(C)C(=O)Oc1c(-c2cccc(C(F)(F)F)c2Cl)c(=O)n(CC2CC2)c2nccnc12 [Compound C124] | 8 | 8 | 7 | 9 |
| C=CCn1c(=O)c(-c2cccc(C(F)(F)F)c2Cl)c(OC(=O)C(C)C)c2nccnc21 [Compound C125] | 7 | 7 | 8 | 2 |
| Cc1ccc(F)c(-c2c(OC(=O)C(C)C)c3nccnc3n(C)c2=O)c1Cl [Compound C126] | 6 | 7 | 7 | 6 |
| CCn1c(=O)c(-c2c(F)ccc(C)c2Cl)c(OC(=O)C(C)C)c2nccnc21 [Compound C127] | 6 | 7 | 7 | 2 |
| Cc1ccc(F)c(-c2c(OC(=O)C(C)(C)C)c3nccnc3n(C)c2=O)c1Cl [Compound C128] | 6 | 6 | 7 | 3 |
